From patent US20150377888A1, “Methods for Predicting and Preventing Metastasis in Triple Negative Breast Cancers” (INSERM (INSTITUT NATIONAL DE LA SANTÉ ET DE LA RECHERCHE …, priority 2013, published 2015)

Tests used:
[1] = test system: EGFR; test: EGFR phosphorylation at Tyr845 / CD95-driven EGFR activation; assay type: cell-based, human; conditions: MDA-MB-468 cells exposed to cl-CD95L
Protocol: Cells were lysed for 30 min at 4° C. in lysis buffer [25 mM HEPES (pH 7.4), 1% v/v Triton X-100, 150 mM NaCl, and 2 mM EGTA supplemented with a mix of protease inhibitors (Sigma-Aldrich)]. Protein concentration was determined by the bicinchoninic acid method (PIERCE, Rockford, Ill., USA) according to the manufacturer's protocol. Proteins were separated by SDS-PAGE and transferred to a nitrocellulose membrane (GE Healthcare, Buckinghamshire, England). The membrane was blocked for 15 min with TBST (50 mM Tris, 160 mM NaCl, 0.05% v/v Tween 20, pH 7.8) containing 5% w/v dried skimmed milk (TBSTM) and then incubated overnight with primary antibody at 4° C. in TBSTM. The membrane was intensively washed (TBST) and peroxidase-labeled anti-rabbit or anti-mouse (SouthernBiotech, Birmingham, Ala., US) was added for 45 min. The proteins were visualized with the enhanced chemiluminescence substrate kit (ECL, GE Healthcare).

[2] = test system: PI3K; test: Immunoblot of Akt phosphorylation at Ser473 (hallmark of PI3K activation) in cells exposed to cl-CD95L; assay type: cell-based, human; conditions: all tested TNBC cell lines
Protocol: Cells were lysed for 30 min at 4° C. in lysis buffer [25 mM HEPES (pH 7.4), 1% v/v Triton X-100, 150 mM NaCl, and 2 mM EGTA supplemented with a mix of protease inhibitors (Sigma-Aldrich)]. Protein concentration was determined by the bicinchoninic acid method (PIERCE, Rockford, Ill., USA) according to the manufacturer's protocol. Proteins were separated by SDS-PAGE and transferred to a nitrocellulose membrane (GE Healthcare, Buckinghamshire, England). […] The proteins were visualized with the enhanced chemiluminescence substrate kit (ECL, GE Healthcare).

[3] = biological target: T1, CD95 (Homo sapiens, UniProt P25445); test: MISC immunoprecipitation; assay type: cell-based; conditions: MDA-MB-231 and MDA-MB-468 cells stimulated with cl-CD95L
T1 construct: endogenous in cells; host or cells: MDA-MB-231 and MDA-MB-468 human TNBC breast cancer cells
T1 sequence (P25445 26-335): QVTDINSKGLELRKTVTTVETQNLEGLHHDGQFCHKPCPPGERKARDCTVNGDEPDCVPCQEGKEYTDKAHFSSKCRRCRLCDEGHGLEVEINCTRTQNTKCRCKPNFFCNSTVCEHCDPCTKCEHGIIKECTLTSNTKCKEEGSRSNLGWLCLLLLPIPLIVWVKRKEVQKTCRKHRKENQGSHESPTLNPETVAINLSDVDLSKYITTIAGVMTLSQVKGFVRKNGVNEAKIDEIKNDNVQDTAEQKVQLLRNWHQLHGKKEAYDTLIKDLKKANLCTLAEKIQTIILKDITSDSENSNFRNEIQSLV
T1 sequence (P48023 130-281 partner limits assumed): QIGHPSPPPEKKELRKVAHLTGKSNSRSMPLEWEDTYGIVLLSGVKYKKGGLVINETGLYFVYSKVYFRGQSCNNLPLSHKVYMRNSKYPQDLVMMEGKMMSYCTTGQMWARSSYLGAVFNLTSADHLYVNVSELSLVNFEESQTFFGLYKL
Protocol: Breast cancer cells (20×10^6 cells per condition) were incubated with 100 ng/ml cl-CD95L for the indicated times. The cells were then lysed, 1 μg of Apo1-3 was added to the cell lysate and CD95 was immunoprecipitated by the addition of protein A-sepharose beads (Sigma-Aldrich). For the immunoprecipitation of EGF-R, 1 μg mouse anti-EGF-R (Santa Cruz Biotechnology, CA, USA) was added to the cell lysate and EGF-R was immunoprecipitated with protein A-sepharose beads (Sigma-Aldrich). After extensive washing, the immune complex was resolved by SDS-PAGE.

[4] = test system: TNBC breast cancer cell lines (Hs578T, MDA-MB-231 and MDA-MB-468); test: In vitro motility assay (Boyden chambers); assay type: cell-based, human
Protocol: Boyden chambers (Millipore, Molsheim, France) containing 8 μm pore membranes were cultured in 24-well plates. After hydration of the membranes, 10^5 cells were added to the top chamber in low serum (1%)-containing medium. […] Cells were cultured for 24 h at 37° C. in a 5% CO2 humidified incubator. To quantify invasion, cells were fixed with methanol and stained with Giemsa. Stained cells were then removed from the top side of the membrane using a cotton-tipped swab and five representative pictures for each insert were taken of the invading cells from the reverse side. For each experiment, cells were lysed and absorbance at 560 nm was measured.

[5] = test system: NADPHox; test: Flow cytometry analysis of intracellular ROS (H2FDA); assay type: cell-based, human
Protocol: Cells were pre-incubated for 30 min at 37° C. with 3 μM of H2FDA resuspended in PBS. The cells were then pre-incubated for an additional 30 min with or without ROS inhibitors before stimulation with 100 ng/ml cl-CD95L for the indicated times. Cells were then washed and analyzed by FACScalibur (BD Bioscience).

## cl-CD95L: soluble ligand produced by metalloprotease cleavage of the transmembrane CD95L (FasL); produced in transfected 293 cells
[1]
  phosphorylation of EGFR at Tyr845: resulted in phosphorylation of EGFR at Tyr845
  time of peak of EGFR Tyr845 phosphorylation: 2 min
  time of stimulation after which EGFR Tyr845 phosphorylation disappeared: 10 min
[2]
  phosphorylation of Akt at Ser473 induced by CD95L: induced rapid phosphorylation of Akt
[3]
  MISC formation: induces MISC formation
[4]; Hs578T, MDA-MB-231 and MDA-MB-468, Boyden chambers
  motility of TNBC cells stimulated with cl-CD95L: dramatic increase in motility
[4]; cl-CD95L at 100 pg/ml
  migration of TNBC cells, titration of cl-CD95L: induced migration of TNBC cells
[5]
  intracellular ROS in breast cancer cells exposed to cl-CD95L: rapid increase in intracellular ROS
